# Experimental data taken from patent US5464865A, “4-aryl- and 4-arylthio-5-hydroxy-2(5H)-furanones as inhibitors of phospholipase A2” (Ortho Pharmaceutical Corporation, priority 1993, dated 1995).
# pIC50: −log10 of the molar value.
# Target: T1, human platelet phospholipase A2 (Homo sapiens, UniProt P14555)
# T1 construct: a preparation of human platelet phospholipase A2; from tissue; host or cells: human platelets
# T1 sequence (P14555 21-144): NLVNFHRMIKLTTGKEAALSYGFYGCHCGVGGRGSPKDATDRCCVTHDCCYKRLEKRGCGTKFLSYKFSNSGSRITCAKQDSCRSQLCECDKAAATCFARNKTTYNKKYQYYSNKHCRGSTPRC
# Assay: Inhibition of human platelet phospholipase A2 (14C-oleate E. coli substrate)
# Type: biochemical
# Conditions: for inhibition at 50 µM: read-out: Inhibition of PLA2, % Inhibition @ 50 μM; for inhibition at 10 µM: @ 10 μM (values marked *), read-out: Inhibition of PLA2, % Inhibition @ *10 μM; for pIC50: pH 7.0, 37°, 60 min incubation, read-out: Inhibition of PLA2, IC50
# Method: The activity of the compounds of the invention against phospholipase A2 is determined using a preparation of human platelet phospholipase A2 with a specific activity of 180 nmol/min/mg as the enzyme source. Polypropylene 15-ml test tubes are utilized as the reaction vessels. All drug samples are run in duplicate, with "blank" and "control" (no test compound) groups run in triplicate. […] Test compounds are dissolved in DMSO, and diluted to a projected final concentration of either 50 or 10 μM in 550 μl HEPES buffer at pH 7.0. A 1:7 dilution of human platelet PLA2 in HEPES buffer (5 μl) is added to each test tube, followed by gentle vortexing for 3 seconds. The reaction tubes containing drug, buffer, and enzyme are preincubated for 15 min at 37°, followed by the addition of 25 μl of ^14 C-oleate E. coli substrate. Details regarding this substrate may be found in a publication by S. Ghosh and R. Franson, Biochem. Cell. Biol., 70, 43 (1992), and references therein.
# The tubes are immediately vortexed at moderate speed for 3 sec, followed by a 60 min incubation at 37° in a shaking water bath. The reaction is stopped by the addition of 3 ml of a 1:2 chloroform-methanol mixture. Additional water (1.5 ml) and chloroform (1.0 ml) are added, followed by vortexing. The lower phase is removed with a polypropylene transfer pipette, and transferred to a 13×100 mm polypropylene test tube. The organic solvent is evaporated with a stream of nitrogen, the residue is redissolved in 30 μl of a 9:1 chloroform-methanol mixture, and the solution is spotted on a channeled polyester-backed silica gel TLC plate, such as those available under the trade name PE SIL G available from Whatman Inc, Clifton, N.J.
# The plate is developed with an 80:20:1 mixture of petroleum ether-diethyl ether-acetic acid. […] The plate is scored above the origin, cut along the score with scissors, and the reactant (origin) and product portions of each channel are put into separate scintillation vials. To each vial is added a scintillation cocktail (15 ml), preferably that sold under the trademark ECOLUME by ICN Biomedicals, Irvine Calif. The vials are shaken vigorously for 5 sec, and the radioactive ^14 C in each vial is measured with a scintillation counter, which provides the counts-per-minute (cpm) for each sample. The obtained cpm values are corrected for the "blank" values.
# The percentage of phospholipid hydrolyzed is calculated by the formula:
# Phospholipid converted=100×cpm products / (cpm products+cpm
# The inhibition of phospholipase A2 by the test compounds is expressed as a percent inhibition relative to the control group:
# % Inhibition=[…]
inhibition at 50 µM [%],inhibition at 10 µM [%],pIC50,SMILES
5,,,"O=C1C=C(c2ccc(Cc3ccccc3)cc2)C(O)O1 (stereo not shown) [Example 49, 5-Hydroxy-4-(4-(phenylmethyl)phenyl)-2(5H)-furanone]"
,11,,"O=C1C=C(c2ccc(C#Cc3ccc([N+](=O)[O-])cc3)cc2)C(O)O1 (stereo not shown) [Example 60, 5-Hydroxy-4-(4-(2-(4-nitrophenyl)ethynyl)phenyl)-2(5H)-furanone]"
,40,,"CCCCCCCCN(C(C)=O)c1ccc(C2=CC(=O)OC2O)cc1 (stereo not shown) [Example 25, 5-Hydroxy-4-(4-(N-acetyl-N-octylamino)phenyl)-2(5H)furanone]"
33,,,"COc1ccc(C#Cc2ccc(C3=CC(=O)OC3O)cc2)cc1 (stereo not shown) [Example 61, 5-Hydroxy-4-(4-(2-(4-methoxyphenyl)ethynyl)phenyl)-2(5H)-furanone]"
23,,,"O=C1C=C(c2ccc(/C=C\c3ccccc3)cc2)C(O)O1 (single isomer, unassigned) [Example 33, (Z)-5-Hydroxy-4-(4-(2-phenylethenyl)phenyl)-2(5H)-furanone]"
,2,,"CC(C)c1cc(C2=CC(=O)OC2O)cc(C(C)C)c1O (stereo not shown) [Example 47, 5-Hydroxy-4-(3,5-bis(1-methylethyl)-4-hydroxyphenyl)-2(5H)-furanone]"
53,,4.38,"CC(C)(C)C#Cc1ccc(C2=CC(=O)OC2O)cc1 (stereo not shown) [Example 53, 5-Hydroxy-4-(4-(3,3-dimethyl-1-butynyl)phenyl)-2(5H)-furanone]"
,6,,"O=C1C=C(c2ccc(C#Cc3cccc([N+](=O)[O-])c3)cc2)C(O)O1 (stereo not shown) [Example 59, 5-Hydroxy-4-(4-(2-(3-nitrophenyl)ethynyl)phenyl)-2(5H)-furanone]"
,21,,"CCCCCCCCOc1ccccc1C1=CC(=O)OC1O (stereo not shown) [Example 8, 5-Hydroxy-4-(2-octyloxyphenyl)-2(5H)furanone]"
,58,,"CCCCCCCCOc1ccc(C2=CC(=O)OC2O)c(OC)c1 (stereo not shown) [Example 5, 5-Hydroxy-4-(2-methoxy-4-octyloxyphenyl)-2(5H)furanone]"
51,,4.30,"O=C1C=C(c2ccc(COc3ccc4ccccc4c3)cc2)C(O)O1 (stereo not shown) [Example 52, 5-Hydroxy-4-(4-(2-naphthyloxymethyl)phenyl)-2(5H)-furanone]"
0,,,"O=C1C=C(Sc2ccc(Br)cc2)C(O)O1 (stereo not shown) [Example 68, 5-Hydroxy-4-((4-bromophenyl)thio)-2(5H)-furanone]"
,69,5.12,"CCCCCCCCOc1ccc(C2=CC(=O)OC2O)c(Cl)c1 (stereo not shown) [Example 2, 5-Hydroxy-4-(2-chloro-4-octyloxyphenyl)-2(5H)furanone]"
13,,,"CCCCCCCCNS(=O)(=O)c1ccc(C2=CC(=O)OC2O)cc1 (stereo not shown) [Example 45, 5-Hydroxy-4-(4-(octylaminosulfonyl)phenyl)-2(5H)-furanone]"
,98,,"CCCCCCCCCCCCCOc1ccc(SC2=CC(=O)OC2O)cc1 (stereo not shown) [Example 65, 5-Hydroxy-4-(4-(tridecyloxy)phenylthio)-2(5H)-furanone]"
0,,,"CCCCSc1ccc(C2=CC(=O)OC2O)cc1 (stereo not shown) [Example 24, 5-Hydroxy-4-(4-(butylthio)phenyl)-2(5H)furanone]"
,27,,"CCCCCCCCOc1ccc(C2=CC(=O)OC2O)cc1OC (stereo not shown) [Example 6, 5-Hydroxy-4-(3-methoxy-4-octyloxyphenyl)-2(5H)furanone]"
30,,,"O=C1C=C(c2ccc(CC(O)COc3ccc4ccccc4c3)cc2)C(O)O1 (racemic) [Example 51, 5-Hydroxy-4-(4-(2-hydroxy-3-(2-naphthyloxy)propyl)phenyl)-2(5H)-furanone]"
17,,,"O=C1C=C(c2ccc(OCCCc3ccccc3)cc2)C(O)O1 (stereo not shown) [Example 10, 5-Hydroxy-4-[4-(3-phenylpropyloxy)phenyl]-2(5H)furanone]"
,92,,"CC1=C(C/C=C(\C)CCCOc2ccc(C3=CC(=O)OC3O)cc2)C(C)(C)CCC1 (stereo not shown) [Example 26, (E)-5-Hydroxy-4-(4-(4-methyl-6-(2,6,6-trimethyl-1-cyclohexen-1-yl)-4-hexenyloxy)phenyl)-2(5H)-furanone]"

inhibition at 50 µM [%],inhibition at 10 µM [%],pIC50,SMILES
59,,4.30,"O=C1C=C(c2ccc(C(=O)c3ccc4ccccc4c3)cc2)C(O)O1 (stereo not shown) [Example 29, 5-Hydroxy-4-(4-(2-naphthoyl)phenyl)-2(5H)-furanone]"
70,,,"CCCCCCCCSc1nc(C2=CC(=O)OC2O)cs1 (stereo not shown) [Example 70, 5-Hydroxy-4-(2-(octylthio)-4-thiazolyl)-2(5H)-furanone]"
,24,,"O=C1C=C(c2ccc(C#Cc3ccc(C(F)(F)F)cc3)cc2)C(O)O1 (stereo not shown) [Example 58, 5-Hydroxy-4-(4-(2-(4-(trifluoromethyl)phenyl)ethynyl)phenyl)-2(5H)-furanone]"
6,,,"O=C1C=C(c2ccc(C(=O)c3ccccc3F)cc2)C(O)O1 (stereo not shown) [Example 31, 5-Hydroxy-4-(4-(2-fluorobenzoyl)phenyl)-2(5H)-furanone]"
,49,,"CCCCCCCCS(=O)(=O)c1ccc(C2=CC(=O)OC2O)cc1 (stereo not shown) [Example 22, 5-Hydroxy-4-(4-octylsulfonyl)phenyl-2(5H)furanone]"
,48,,"CCCCCOc1ccc(SC2=CC(=O)OC2O)cc1 (stereo not shown) [Example 66, 5-Hydroxy-4-(4-(pentyloxy)phenylthio)-2(5H)-furanone]"
,33,,O=C1C=C(c2ccc(C#Cc3cc4ccccc4s3)cc2)C(O)O1 (stereo not shown) [Example 62]
0,,,"C=CCOc1cccc(C2=CC(=O)OC2O)c1 (stereo not shown) [Example 11, 5-Hydroxy-4-[(3-allyloxy)phenyl]-2(5H)furanone]"
,7,,"CCCCCCCCOc1ccc(C2=CC(=O)OC2O)cc1NC(C)=O (stereo not shown) [Example 9, 5-Hydroxy-4-(3-acetamido-4-octyloxyphenyl)-2(5H)furanone]"
98,,6.30,"CC1=C(C/C=C(\C)COc2ccc(SC3=CC(=O)OC3O)cc2)C(C)(C)CCC1 (stereo not shown) [Example 67, (E)-5-Hydroxy-4-(4-(2-methyl-4-(2,6,6-trimethyl-1-cyclohexen-1-yl)-2-butenyloxy)phenylthio)-2(5H)-furanone]"
,45,,"O=C1C=C(c2cccc(C#Cc3ccccc3)c2)C(O)O1 (stereo not shown) [Example 63, 5-Hydroxy-4-(3-(2-phenylethynyl)phenyl)-2(5H)-furanone]"
,71,5.27,"CCCCCCCCOc1ccc(C2=CC(=O)OC2O)cc1Cl (stereo not shown) [Example 4, 5-Hydroxy-4-(3-chloro-4-octyloxyphenyl)-2(5H)furanone]"
55,,,"CCCCCCCC(=O)c1ccc(C2=CC(=O)OC2O)cc1 (stereo not shown) [Example 32, 5-Hydroxy-4-(4-octanoylphenyl)-2(5H)-furanone]"
0,,,"CCCCCCCC(=O)Nc1cccc(C2=CC(=O)OC2O)c1 (stereo not shown) [Example 20, 5-Hydroxy-4-(3-(1-oxooctylamino)phenyl)-2(5H)furanone]"
,67,5.03,"CCCCCCCCOc1ccc(C2=CC(=O)OC2O)cc1[N+](=O)[O-] (stereo not shown) [Example 7, 5-Hydroxy-4-(3-nitro-4-octyloxyphenyl)-2(5H)furanone]"
59,,,"O=C1C=C(c2ccc(C#Cc3ccc4ccccc4c3)cc2)C(O)O1 (stereo not shown) [Example 56, 5-Hydroxy-4-(4-(2-(2-naphthyl)ethynyl)phenyl)-2(5H)-furanone]"
0,,,"O=C1C=C(c2ccc(OS(=O)(=O)C(F)(F)F)cc2)C(O)O1 (stereo not shown) [Example 46, 5-Hydroxy-4-(4-(trifluoromethanesulfonoxy)phenyl)-2(5H)-furanone]"
69,,5.08,"O=C1C=C(c2ccc(C#Cc3cccc4ccccc34)cc2)C(O)O1 (stereo not shown) [Example 57, 5-Hydroxy-4-(4-(2-(1-naphthyl)ethynyl)phenyl)-2(5H)-furanone]"
39,,,"CCCCCCCCOc1cccc(C2=CC(=O)OC2O)c1 (stereo not shown) [Example 3, 5-Hydroxy-4-(3-octyloxyphenyl)-2(5H)furanone]"
52,,4.30,"O=C1C=C(c2ccc(Oc3ccc4ccccc4c3)cc2)C(O)O1 (stereo not shown) [Example 50, 5-Hydroxy-4-(4-(2-naphthyloxy)phenyl)-2(5H)-furanone]"
